The data set in a line: Excipient compatibility: stability of binary mixture of API plus excipient, purity by HPLC. The data set is classed as physicochemical. On the procedure: A comparison of the stability of the API of the current invention was made, using excipients well-known in the art. […] Compound purity was determined by HPLC. The mixture of the API and the calcium phosphate was allowed to stand under the specified conditions for the stated times. Results are given as percent purity of the API at the given time point. […] Again, the mixture of the API and the microcrystalline cellulose was allowed to stand under the specified conditions for the stated times. Results are given as percent purity of the API at the given time point.

The values below come from US20100247642A1, “STABLE PHARMACEUTICAL FORMULATION FOR A DPP-IV INHIBITOR” (Phenomix Corporation, priority 2007, published 2010).

As for `O=C(CNC1CCNC1)N1CCCC1B(O)O` (stereo not shown) [API, pyrrolidin-3-yl-glycyl-boro-proline], the “% API (percent purity of the API)” value reads like this: (binary mixture with dibasic calcium phosphate, 2 weeks/loose cap) 77.0%; (binary mixture with dibasic calcium phosphate, 2 weeks/tight cap) 77.2%; (binary mixture with dibasic calcium phosphate, 4 weeks/tight cap) 71.7%; (binary mixture with microcrystalline cellulose, 2 weeks/loose cap) 82.1%; (binary mixture with microcrystalline cellulose, 4 weeks/tight cap) 90.2%. In addition, under “binary mixture with dibasic calcium phosphate, within two weeks, regardless of exposure to atmosphere”, the “drop in API purity” value is listed as “over 10%”. Moreover, under “presence of calcium phosphate”, the “storage stability of the API in the presence of calcium phosphate” value is recorded as “massive decomposition”.
